# What was measured:
# [1] = tested on: recurrent migraine headaches; experiment: Oral levetiracetam as a prophylactic agent, small-scale open-label trial; type: in vivo; details: chronic daily oral treatment, 250 to 750 mg tablets; substantial fraction of patients
# Excerpt: A limited number of patients who were being treated by the Applicant for recurrent migraine headaches were placed on a regimen of daily oral levetiracetam, in a small-scale open-label trial. […] In general, the recurrent migraine patients who were chosen for this type of experimental trial were those who had not responded adequately to various other known candidate treatments. Patients kept daily records of the frequency of their migraine headaches, and also kept logs that recorded the severity of each headache, on a subjective scale of 1 to 10, with 1 being mild, and 10 being extremely intense pain.
# [2] = tested on: intractable migraine headache; experiment: Injectable (intravenous) levetiracetam for acute migraines, open-label study; type: in vivo, patients
# Description: Sterile, preservative-free liquid preparations of levetiracetam, at concentrations of 200 mg/ml or 400 mg/ml, was prepared in a laminar flow hood by a compounding pharmacist. Particulate matter was filtered out through a series of filtrations and the solution was stabilized at a pH of 6.0. The resulting solution was clear. 29 patients were treated (19 female and 10 male), and a total of 42 intractable migraines were treated in this study. Their age range was 26 to 59 (mean age, 44 years). All patients had failed treatment with their usual migraine-specific or abortive therapies. Most patients (n=24) were in the second or third day of intractable migraine headache. 5 patients were treated on more than one occasion (1 patient was treated 6 separate times; 1 patient, 5 times, 1 patient, 3 times; and 2 patients, twice each). 6 patients (21%) were already on levetiracetam orally at the time of intravenous treatment. 23 were naive to levetiracetam at the time of treatment. Patients were treated in the setting of a headache clinic. An antecubital line was started and pulse oximetry monitoring was employed throughout treatment. No other medications were given orally or intravenously to treat the migraine. In a typical treatment for a first-time patient, a test dose of 400 mg levetiracetam was given, and then 400-600 mg was given every 5 minutes, until maximum effect was reported by the patient. The average dosage given intravenously was 5940 mg (range 400 to 16,000 mg). The average time to best response after treatment was 66 min (range=20-120 min). Prior to treatment, migraine severity (reported by each patient on a 0 to 10 numeric rating scale (NRS), with 10 representing the absolute worst possible pain) was 8.4. After treatment, it was 1.6, which represents a mean reduction of 81% in migraine severity. 16 patients (55%), representing 21 of 42 episodes, had complete resolution of their ongoing migraine, to a reported severity of zero. Only one patient had no reported response to the treatment.
# epileptic seizures = details: taken chronically; patients who suffer from frequent seizures; cited from earlier work
# [3] = over a wide dose range; cited from earlier work
structure (smiles),measurement,setting,value
CC[C@@H](C(N)=O)N1CCCC1=O [levetiracetam],reduced frequency and/or reduced severity of migraine headaches,[1],substantial benefits
same,episodes with complete resolution of ongoing migraine,[2]; intravenous,21 of 42 episodes
same,side effects,[2]; intravenous,minimal
same,"time to best response after treatment, range","[2]; intravenous, 29 patients, 42 migraines",20 to 120 min
same,mean reduction in migraine severity,"[2]; intravenous, NRS 8.4 prior to treatment vs 1.6 after",81%
same,average time to best response after treatment,"[2]; intravenous, average dosage 5940 mg, 29 patients, 42 migraines",66 min
same,time until side effects dissipated spontaneously,"[2]; intravenous, nausea and drowsiness",30 to 90 min
same,patients reporting drowsiness,"[2]; intravenous, of 29 patients",2 patients
same,patients reporting transient nausea,"[2]; intravenous, of 29 patients",3 patients
same,"patients with complete resolution of ongoing migraine, to a reported severity of zero","[2]; intravenous, of 29 patients",16 patients
same,patients with no reported response to the treatment,"[2]; intravenous, of 29 patients",one
same,share of patients with complete resolution of ongoing migraine,"[2]; intravenous, of 29 patients",55%
same,"migraine severity after treatment (0 to 10 numeric rating scale, NRS)","[2]; intravenous, severity prior to treatment was 8.4",1.6
same,outcome in patient treated for a combination of cluster headaches and migraines,[2]; one patient,resolution of both
same,reduction of the frequency of epileptic seizures,epileptic seizures,15 to 30%
same,tolerability / toxicity,[3],well tolerated over a wide dose range with no apparent toxicity

# Reference: US20040116506A1, “Use of levetiracetam for treating or preventing acute headaches” (priority 2002, published 2004)
